Experimental data as given in patent US6423703B1, “Use of a porphyrin for producing a medicine reducing the number of eosinophils” (Sephra S.A.R.L., priority 1998, dated 2002).
“Also recorded” adds a separate entry of the source. Like-named read-outs stand apart in the source and are kept apart here.

What was measured:
[1] = test system: cerebral ischemia; settings: i.p. 50 mg/kg, 24 hrs, adult rats, cited from earlier work
[2] = test system: human eosinophils; assay: Apoptosis and survival of purified human eosinophils in culture (cytology, blue trypan); type: cell-based; settings: for Apoptosis of eosinophils (percentage of apoptotic eosinophils): ZnPP-IX 10 μM, IL-5 10 pM where present, RPMI 1640, average of three experiments; for Number of apoptotic cells: in the presence of IL-5
Method: A leukocyte-rich suspension is obtained after sedimentation of whole blood, anticoagulated in the presence of dextran T500 (4.5%). 35 ml of aliquots are added to 15 mi of Ficoll. After centrifugation (30 min, 1000×g) the mononucleated cells at the interface are eliminated. The pellet which contains neutrophils, eosinophils and the corpuscles is washed and subjected to an osmotic shock in order to eliminate the corpuscles. The magnetic cellular separation system (MACS; Miltenyi Biotec) is used to purify the eosinophils by negative selection [Hansel et al, 1991, J. Immunol. Meth. 145: 105-110]. Magnetic particles anti-CD16 (1 μl/1×10^6 cells) are added to the suspension of neutrophils and eosinophils at 4° C. and kept at this temperature for 40 minutes with several placement gain in solution. The suspension is then added at the summit of the separation column in the presence of a magnetic field, the tap open at the base. 30 ml of PBS/FCS is passed through the column and the effluent is recovered. The magnetically marked cells (neutrophils) remain in the column; the unmarked cells (eosinophils) are recovered in the effluent and washed. PBS=Phosphate buffered saline FCS=Foetal calf serum
The freshly purified eosinophils are again placed in suspension (1.5-3×10^5 cells per ml) in RPMI 1640 (Gibco BRL) supplemented with 0.1 mM non essential amino acids, 100 U/ml of penicillin, 10 μg of streptomycine, 10 mM of HEPES, 2 mM of glutamine and 10% FCS. The aliquots of 160 μl of cellular suspension are deposited in each of the wells of a 96 well tray (Costar) containing 20 μl of IL-5 as survival factor. Twenty μl of the substance to be studied in a precise concentration or 20 μl of the medium on its own as a control are deposited in the corresponding wells. The cellular viability and the percentage of apoptotic eosinophils are counted at 24 hrs and 48 hrs with the aid of the methods below.
Blue trypan makes it possible to evaluate cellular viability. The cellular suspension is added to an equal volume of blue trypan at 0.1% in PBS. The abso!ute number of cells excluding the blue trypan (=“living” cells) per unit volume is obtained by counting the cells in a hemocytometer (Mallassez).
Cytology: makes it possible to visualise the morphological modification of the eosinophils during apoptosis in vitro. The cellular suspension is cyto-centrifuged then the strips are coloured (kit RAL 555, Prolabo). The percentage of apoptotic cells is established by optical microscope according to their characteristic morphology (pyknotic nucleus with condensed chromatine or without a nucleus, reduction in the cells diameter, cytoplasmic condensation). The freshly isolated eosinophils from the blood circulation have a characteristic morphology in optical microscopy: a granular cytoplasm coloured red-orange by eosin and a very often bivobed nucleus. In the absence of survival factors such as IL-5, IL-3 or GM-CSF, the first morphological signs of apotosis of the eosinophils appear. The chromatin condenses and the nucleus of the eosinophil takes on a pyknotic appearance. This pyknotic appearance of the nucleus, standard in the course of apoptosis, is however rarely observed in the eosinophil, perhaps because of its brevity. Another morphological sign characteristic of apoptosis is the reduction of cellular volume which is very marked in the eosinophil (Beauvais et al, 1995, J, Leukoc. Biol. 57: 851-855). After 48 hours of incubation, the nuclear structures have disappeared in the majority of eosinophils which now appear in the form of anucleated vesicles.

[3] = literature in vivo studies; rats, mice, monkeys; i.v., i.p., sub-cutaneous; cited from earlier work
[4] = test system: neonatal jaundice; settings: Qato et Maines, 1985; s.c. 25 mg/kg; 12 days; Rhesus monkeys and cynomolgus; cited from earlier work
[5] = test system: inflammation; settings: Nagai et al, 1992; 30 mg/kg; adult rats and mice; cited from earlier work
[6] = test system: hyperbilirubinemia due to iatrogenic hemolysis; settings: Vreman et al, 1990; i.v. 25 mg/kg; 24 hrs; Rhesus monkeys (new-born); cited from earlier work
[7] = −20° C., protected from light and humidity; cited from earlier work
[8] = test system: intestinal, splenic and hepatic hemoxygenesis; settings: Vrema et al, 1988; p.o. 25 mg/kg; 6 hrs; new-born and adult rats; cited from earlier work
[9] = test system: neonatal jaundice; settings: Rodgers et al, 1996; i.p. 25 mg/kg; 21 days; new-born rats; cited from earlier work
[10] = Hintz et al, 1990; i.p. 37 mg/kg; 12 hrs; new-born rats; cited from earlier work
[11] = test system: steroidogenesis; settings: Trakshel et al, 1992; s.c. 31 mg/kg (2x −4j); 7 days; rats; cited from earlier work
[12] = test system: peritoneal hypereosinophilia; assay: Ovalbumin-induced peritoneal hypereosinophilia in mice; type: in vivo, Swiss mice; settings: 0.1 ml of 1 mM (3.1 mg/kg) intraperitoneal with ovalbumin challenge; 48 hrs; two mice
Method: Swiss mice (about 20 g) are immunised sub cutaneously twice (with a 6 day interval) with 100 μg of ovalbumin in 0.4 ml of a suspension at 4 mg/ml of Al(OH)3 in NaCl 0.9%. One week after the second injection, 0.2 ml of ovalbumin at 5 μg/ml of ovalbumin are administered by intraperitoneal injection. The control mice are injected with the vehicle only.
The mice are killed at different times (overdose of ether) and—after dissection —undergo a peritoneal wash with 6ml of NaCl 0.9% (heparinised). After slight massage, the liquid of the wash is collected and the cellular concentration is measured in a hemocytometer. Cytocentrifugation strips are made and coloured by the Wright colorant (kit RAL 555, Prolabo, France). The differential count of mononucleated (monocytes+macrophages+lymphocytes), eosinophil and neutrophil cells is carried out objectively×100 by immersion in oil. During the peritoneal washing of the control mice, the residual cells are essentially macrophages, whereas during the peritoneal washing of mice immunised by ovalbumin, an inflammatory infiltrate with the apparition of polynuclear eosinophils and neutrophils is observed.
The ZnPP-IX is Injected at the same time as the second injection of ovalbumin (OVA). […] The results are represented by FIGS. 4, 5 and 6. Each column represents the average for two mice at 48 hrs.

[13] = test system: eosinophils; assay: TUNEL method, DNA fragmentation in situ in eosinophils; type: cell-based, human; settings: IL-5 (lpM) and ZnPP-IX (10 μM); 48 hours
Method: The TUNEL method makes it possible to visualise the apoptotic nuclei containing the fragmented DNA. Its assumption rests on the enzymatic fixation of a fluorescent marker (Fluoresceine-12-dUTP) at the free extremities of the DNA (3′-OH DNA). This technique consists of the cells in each well being cytocentrifuged then fixed by formaldehyde solution at 4% (25 min at 4° C.). After washing, the preparations are made permeable by a solution of Triton X-100 0.2% (5 min at 20° C.). The cells are incubated (1 hr at 37° C.) in the presence of a solution containing fluoresceine-12-dUTP and the enzyme TdT (terminal deoxynucleotidal transferase). The reaction is […] in a stopping solution. After mounting under a coverglass, the preparation is visualized under the fluorescence microscope (Apoptosis Detection System Fluorescein. Promega, Madison, Wis., USA).
In the presence of IL-5 and the control solution, there is no marking of the nuclei.

[14] = test system: neonatal jaundice; settings: Rodgers et al, 1990; i.v. 25 mg/kg; 26 hrs; Rhesus monkeys (new-born); cited from earlier work
[15] = test system: eosinophils; settings: in vitro; cited from earlier work

## C=CC1=C(C)c2cc3[n-]c(cc4[n-]c(cc5nc(cc1n2)C(C)=C5C=C)c(C)c4CCC(=O)O)c(CCC(=O)O)c3C.[Zn+2] [ZnPP-IX, Zinc-Protoporphyrin IX]
[1]; Kadoya et al, 1995
  Pharmacological effects: Protects from cerebral ischemia
[1]; Zhao et al, 1996
  Pharmacological effects: Protects from cerebral ischemia
[2]; 24 hrs
  Apoptosis of eosinophils (percentage of apoptotic eosinophils): 45 ± 15
  Number of apoptotic cells: very small
[2]; 48 hrs
  Apoptosis of eosinophils (percentage of apoptotic eosinophils): 99 ± 1
  Number of apoptotic cells: practically all the cells are apoptotic
[2]; average of two representative experiments
  Activity on the survival and apoptosis of the eosinophils (FIG. 2): dosedependant activity
[2]; in stronger concentrations of IL5 (10 pM)
  Induction of the apoptosis of eosinophils: induces the apoptosis of eosinophils
[2]; in the absence of IL-5
  Effect on apoptosis of the eosinophils: accelerates the apoptosis
[2]; time 0
  Apoptosis of eosinophils (percentage of apoptotic eosinophils): 0
[3]
  Toxicity in animals: No toxicity has been reported; also recorded: No harmful effects were revealed
[4]
  Pharmacological effects: Reduces neonatal jaundice
[5]
  Pharmacological effects: Anti-inflammatory effect
[6]
  Pharmacological effects (hyperbilirubinemia due to iatrogenic hemolysis): Reduces hyperbilirubinemia due to
[7]
  Storage stability: at least 1 year
[8]
  Pharmacological effects (inhibition of intestinal, splenic and hepatic hemoxygenesis): No inhibitory effect on intestinal,
[9]
  Pharmacological effects: Reduces neonatal jaundice
[10]
  Pharmacological effects (phototoxicity): No phototoxic effect
[11]
  Pharmacological effects (steroidogenesis): No effect on steroidogenesis
[12]
  Inflammatory infiltrate in peritoneal wash: reduces the inflammatory infiltrate
  Number of eosinophils in the tissues: large decrease
[13]
  Marking of apoptotic nuclei by the TUNEL method: appear marked
[14]
  Pharmacological effects: Reduces neonatal jaundice

## CCN(CC)CC(=O)Nc1c(C)cccc1C [lidocaine]
[15]
  Survival of eosinophils: reduce the survival of eosinophils

## IL-5: Cytokine used as survival factor for the eosinophils in culture
[2]; 24 hrs
  Apoptosis of eosinophils (percentage of apoptotic eosinophils): 2 ± 2
[2]; 48 hrs
  Apoptosis of eosinophils (percentage of apoptotic eosinophils): 2 ± 1
[2]; time 0
  Apoptosis of eosinophils (percentage of apoptotic eosinophils): 0
